Data from PubChem BioAssay (NCI).
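Following 48 hours of exposure in 96-well plates, responses at five concentrations were used to interpolate endpoints linearly. The concentration for 50% growth inhibition is given as GI50. At the TGI there is no net growth.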

Experiments:
Assay in all cases: DTP human tumour cell line panel, 48 h
SK-MEL-2 melanoma = test system: SK-MEL-2 melanoma
SW-620 colon = test system: SW-620 colon
CCRF-CEM leukemia = test system: CCRF-CEM leukemia
HOP-18 NSCLC = test system: HOP-18 NSCLC
RXF 393 renal = test system: RXF 393 renal
SF-295 CNS = test system: SF-295 CNS
UACC-257 melanoma = test system: UACC-257 melanoma
A549 NSCLC = test system: A549 NSCLC
LOX IMVI melanoma = test system: LOX IMVI melanoma
MALME-3M melanoma = test system: MALME-3M melanoma
UO-31 renal = test system: UO-31 renal
LXFL 529 NSCLC = test system: LXFL 529 NSCLC
HCT-116 colon = test system: HCT-116 colon
EKVX NSCLC = test system: EKVX NSCLC
OVCAR-8 ovarian = test system: OVCAR-8 ovarian
OVCAR-4 ovarian = test system: OVCAR-4 ovarian
SF-268 CNS = test system: SF-268 CNS
HOP-62 NSCLC = test system: HOP-62 NSCLC
786-0 renal = test system: 786-0 renal
HT29 colon = test system: HT29 colon
SK-OV-3 ovarian = test system: SK-OV-3 ovarian
RPMI-8226 leukemia = test system: RPMI-8226 leukemia
HL-60(TB) leukemia = test system: HL-60(TB) leukemia
HCT-15 colon = test system: HCT-15 colon
SR leukemia = test system: SR leukemia
HCC-2998 colon = test system: HCC-2998 colon
SNB-75 CNS = test system: SNB-75 CNS
TK-10 renal = test system: TK-10 renal
SNB-19 CNS = test system: SNB-19 CNS
KM20L2 colon = test system: KM20L2 colon
OVCAR-5 ovarian = test system: OVCAR-5 ovarian
NCI-H23 lung = test system: NCI-H23 lung
M14 melanoma = test system: M14 melanoma
COLO 205 colon = test system: COLO 205 colon
SN12C renal = test system: SN12C renal
ACHN renal = test system: ACHN renal
KM12 colon = test system: KM12 colon
DLD-1 colon = test system: DLD-1 colon
SF-539 CNS = test system: SF-539 CNS
U251 CNS = test system: U251 CNS
MOLT-4 leukemia = test system: MOLT-4 leukemia
IGROV1 ovarian = test system: IGROV1 ovarian
CAKI-1 renal = test system: CAKI-1 renal
SNB-78 CNS = test system: SNB-78 CNS
SK-MEL-28 melanoma = test system: SK-MEL-28 melanoma
NCI-H460 lung = test system: NCI-H460 lung
HOP-92 NSCLC = test system: HOP-92 NSCLC
DMS 273 small cell lung = test system: DMS 273 small cell lung
SK-MEL-5 melanoma = test system: SK-MEL-5 melanoma
OVCAR-3 ovarian = test system: OVCAR-3 ovarian
K-562 leukemia = test system: K-562 leukemia
UACC-62 melanoma = test system: UACC-62 melanoma
NCI-H226 lung = test system: NCI-H226 lung
M19-MEL melanoma = test system: M19-MEL melanoma
DMS 114 small cell lung = test system: DMS 114 small cell lung
A498 renal = test system: A498 renal
RXF-631 renal = test system: RXF-631 renal
NCI-H522 lung = test system: NCI-H522 lung

N.N.N.N.N.N#Cc1nn[n-]n1.[Cl-].[Co+3]
GI50 (SK-MEL-2 melanoma): > 100 µM
TGI (SK-MEL-2 melanoma): > 100 µM
GI50 (SW-620 colon): > 100 µM
TGI (SW-620 colon): > 100 µM
GI50 (CCRF-CEM leukemia): > 100 µM
TGI (CCRF-CEM leukemia): > 100 µM
GI50 (HOP-18 NSCLC): > 100 µM
TGI (HOP-18 NSCLC): > 100 µM
GI50 (RXF 393 renal): > 100 µM
TGI (RXF 393 renal): > 100 µM
GI50 (SF-295 CNS): > 100 µM
TGI (SF-295 CNS): > 100 µM
GI50 (UACC-257 melanoma): > 100 µM
TGI (UACC-257 melanoma): > 100 µM
GI50 (A549 NSCLC): > 100 µM
TGI (A549 NSCLC): > 100 µM
GI50 (LOX IMVI melanoma): > 100 µM
TGI (LOX IMVI melanoma): > 100 µM
GI50 (MALME-3M melanoma): > 100 µM
TGI (MALME-3M melanoma): > 100 µM
GI50 (UO-31 renal): > 100 µM
TGI (UO-31 renal): > 100 µM
GI50 (LXFL 529 NSCLC): > 100 µM
TGI (LXFL 529 NSCLC): > 100 µM
GI50 (HCT-116 colon): > 100 µM
TGI (HCT-116 colon): > 100 µM
GI50 (EKVX NSCLC): > 100 µM
TGI (EKVX NSCLC): > 100 µM
GI50 (OVCAR-8 ovarian): > 100 µM
TGI (OVCAR-8 ovarian): > 100 µM
GI50 (OVCAR-4 ovarian): > 100 µM
TGI (OVCAR-4 ovarian): > 100 µM
GI50 (SF-268 CNS): > 100 µM
TGI (SF-268 CNS): > 100 µM
GI50 (HOP-62 NSCLC): > 100 µM
TGI (HOP-62 NSCLC): > 100 µM
GI50 (786-0 renal): > 100 µM
TGI (786-0 renal): > 100 µM
GI50 (HT29 colon): > 100 µM
TGI (HT29 colon): > 100 µM
GI50 (SK-OV-3 ovarian): > 100 µM
TGI (SK-OV-3 ovarian): > 100 µM
GI50 (RPMI-8226 leukemia): > 100 µM
TGI (RPMI-8226 leukemia): > 100 µM
GI50 (HL-60(TB) leukemia): > 100 µM
TGI (HL-60(TB) leukemia): > 100 µM
GI50 (HCT-15 colon): > 100 µM
TGI (HCT-15 colon): > 100 µM
GI50 (SR leukemia): > 100 µM
TGI (SR leukemia): > 100 µM
GI50 (HCC-2998 colon): > 100 µM
TGI (HCC-2998 colon): > 100 µM
GI50 (SNB-75 CNS): > 100 µM
TGI (SNB-75 CNS): > 100 µM
GI50 (TK-10 renal): > 100 µM
TGI (TK-10 renal): > 100 µM
GI50 (SNB-19 CNS): > 100 µM
TGI (SNB-19 CNS): > 100 µM
GI50 (KM20L2 colon): > 100 µM
TGI (KM20L2 colon): > 100 µM
GI50 (OVCAR-5 ovarian): > 100 µM
TGI (OVCAR-5 ovarian): > 100 µM
GI50 (NCI-H23 lung): > 100 µM
TGI (NCI-H23 lung): > 100 µM
GI50 (M14 melanoma): > 100 µM
TGI (M14 melanoma): > 100 µM
GI50 (COLO 205 colon): > 100 µM
TGI (COLO 205 colon): > 100 µM
GI50 (SN12C renal): > 100 µM
TGI (SN12C renal): > 100 µM
GI50 (ACHN renal): > 100 µM
TGI (ACHN renal): > 100 µM
GI50 (KM12 colon): > 100 µM
TGI (KM12 colon): > 100 µM
GI50 (DLD-1 colon): > 100 µM
TGI (DLD-1 colon): > 100 µM
GI50 (SF-539 CNS): > 100 µM
TGI (SF-539 CNS): > 100 µM
GI50 (U251 CNS): > 100 µM
TGI (U251 CNS): > 100 µM
GI50 (MOLT-4 leukemia): > 100 µM
TGI (MOLT-4 leukemia): > 100 µM
GI50 (IGROV1 ovarian): > 100 µM
TGI (IGROV1 ovarian): > 100 µM
GI50 (CAKI-1 renal): > 100 µM
TGI (CAKI-1 renal): > 100 µM
GI50 (SNB-78 CNS): > 100 µM
TGI (SNB-78 CNS): > 100 µM
GI50 (SK-MEL-28 melanoma): > 100 µM
TGI (SK-MEL-28 melanoma): > 100 µM
GI50 (NCI-H460 lung): > 100 µM
TGI (NCI-H460 lung): > 100 µM
GI50 (HOP-92 NSCLC): > 100 µM
TGI (HOP-92 NSCLC): > 100 µM
GI50 (DMS 273 small cell lung): > 100 µM
TGI (DMS 273 small cell lung): > 100 µM
GI50 (SK-MEL-5 melanoma): > 100 µM
TGI (SK-MEL-5 melanoma): > 100 µM
GI50 (OVCAR-3 ovarian): > 100 µM
TGI (OVCAR-3 ovarian): > 100 µM
GI50 (K-562 leukemia): > 100 µM
TGI (K-562 leukemia): > 100 µM
GI50 (UACC-62 melanoma): > 100 µM
TGI (UACC-62 melanoma): > 100 µM

CN1C(c2ccccc2)CC(C)(O)CC1c1ccccc1 (stereo unspecified)
TGI (NCI-H226 lung): > 100 µM
TGI (SK-MEL-2 melanoma): > 100 µM
TGI (SW-620 colon): > 100 µM
TGI (CCRF-CEM leukemia): > 100 µM
TGI (RXF 393 renal): > 100 µM
TGI (SF-295 CNS): > 100 µM
TGI (UACC-257 melanoma): > 100 µM
TGI (A549 NSCLC): > 100 µM
TGI (M19-MEL melanoma): > 100 µM
TGI (LOX IMVI melanoma): > 100 µM
TGI (MALME-3M melanoma): > 100 µM
TGI (DMS 114 small cell lung): > 100 µM
TGI (UO-31 renal): > 100 µM
TGI (LXFL 529 NSCLC): > 100 µM
TGI (HCT-116 colon): > 100 µM
TGI (EKVX NSCLC): > 100 µM
TGI (OVCAR-8 ovarian): > 100 µM
TGI (OVCAR-4 ovarian): > 100 µM
TGI (A498 renal): > 100 µM
TGI (SF-268 CNS): > 100 µM
TGI (HOP-62 NSCLC): > 100 µM
TGI (786-0 renal): > 100 µM
TGI (HT29 colon): > 100 µM
TGI (SK-OV-3 ovarian): > 100 µM
TGI (RPMI-8226 leukemia): > 100 µM
TGI (HL-60(TB) leukemia): > 100 µM
TGI (HCT-15 colon): > 100 µM
TGI (SR leukemia): > 100 µM
TGI (HCC-2998 colon): > 100 µM
TGI (SNB-75 CNS): > 100 µM
TGI (TK-10 renal): > 100 µM
TGI (SNB-19 CNS): > 100 µM
TGI (KM20L2 colon): > 100 µM
TGI (OVCAR-5 ovarian): > 100 µM
TGI (NCI-H23 lung): > 100 µM
TGI (M14 melanoma): > 100 µM
TGI (COLO 205 colon): > 100 µM
TGI (SN12C renal): > 100 µM
TGI (ACHN renal): > 100 µM
TGI (KM12 colon): > 100 µM
TGI (RXF-631 renal): > 100 µM
TGI (DLD-1 colon): > 100 µM
TGI (SF-539 CNS): > 100 µM
TGI (U251 CNS): > 100 µM
TGI (MOLT-4 leukemia): > 100 µM
TGI (IGROV1 ovarian): > 100 µM
TGI (CAKI-1 renal): > 100 µM
TGI (SNB-78 CNS): > 100 µM
TGI (SK-MEL-28 melanoma): > 100 µM
TGI (NCI-H522 lung): > 100 µM
TGI (NCI-H460 lung): > 100 µM
TGI (HOP-92 NSCLC): > 100 µM
TGI (DMS 273 small cell lung): > 100 µM
TGI (SK-MEL-5 melanoma): > 100 µM
TGI (OVCAR-3 ovarian): > 100 µM
TGI (K-562 leukemia): > 100 µM
TGI (UACC-62 melanoma): > 100 µM
